According to US20160136284A1, “GLIOMA TREATMENT” (priority 2012, published 2016):

Test: Coinfusion of carboplatin and gadolinium-DTPA into pig corona radiata (T1 MRI, LA-ICP-MS)
Type: in vivo
Details: carboplatin 0.03 mg/ml coinfused with 0.3% gadolinium-DTPA, CED
Protocol: Carboplatin infusions were undertaken into male Large White Landrace pigs weighing 45 kg using a cannula system developed in-house. Pig anaesthesia, head immobilisation and brain imaging were achieved as we have previously described White et al (2010). Infusions of 120 μl 0.03 mg/ml carboplatin mixed with 0.3% (6 μmol/l) Gadolinium-DTPA (Magnevist: Bayer Healthcare, Germany), were undertaken bilaterally into the corona radiata using a cannula composed of a length of fused silica (outer diameter 220 μm, inner diameter 150 μm) bonded to a glass Hamilton syringe. Except for the distal 3 mm, this fused silica tube was supported along its length by a series of zirconia tubes to ensure that it could be accurately inserted to target. Infusions were performed using the following regime: 0.5 μl/min for 5 min, 1 μl/min for 5 min, 2.5 μl/min for 5 min and then 5 μl/min for 20 min. This regime was employed in an attempt to minimise the occurrence of a sudden surge in pressure at the catheter tip due to elasticity in the infusion tubing. 120 μl was infused as this is the largest volume that we have previously infused into pig white matter without leakage into the ventricular system. Following infusion completion, the cannula was left in place for 10 min prior to being withdrawn slowly by hand. CSF leakage from the burr hole and cannula track was sealed with Cerebond prior to wound closure. […]

For Gadolinium-DTPA, the “distribution in pig corona radiata (LA-ICP-MS)” value was “distributed over a larger volume of brain than carboplatin”.
